Entries after “also recorded” stand apart in the source; their conditions may differ. Like-named read-outs stand apart in the source and are kept apart here.

One molecule from US20160137630A1, “INDUCTION OF GATA2 BY HDAC1 AND HDAC2 INHIBITORS” (ACETYLON PHARMACEUTICALS, INC., priority 2014, published 2016) can be followed below.

In data set [1] the target is HDAC1 (Homo sapiens, UniProt Q13547). Description: in vitro biochemical HDAC inhibition assay.
Data set [2] deals with HDACs 4-9. Briefly: in vitro HDAC inhibition assay, HDACs 4-9. The class given is biochemical. The following applies: concentrations as high as 20 μM; FIG. 20.
Data set [3] concerns Gata2 mRNA. Description: induction of Gata2 mRNA in erythroid progenitors by HDAC1,2 inhibitors. The class given is cell-based, human. Conditions: erythroid progenitors differentiated 3 days with compound; FIG. 2A-C. The text has this:
Human bone marrow derived CD34+ cells were expanded for 7 days as described by Sankaran et al., Science, vol. 322(5909), pp. 1839-42 (2008). Cells were then differentiated, in the presence of the indicated compound (i.e., Compounds 001, Compound Y, Compound 2005, Compound 2004, Compound 2003), for 3 days in media supporting erythropoiesis (Hu et al., “Isolation and functional characterization of human erythroblasts at distinct stages: implications for understanding of normal and disordered erythropoiesis in vivo”, Blood, vol. 121(16), pp. 3246-53 ([…])). FIG. 2A, FIG. 2B, and FIG. 2C each represents an experimental series performed on different days and with different donor cells.

Data set [4] relates to K562 erythroleukemia cells. Briefly: Gata2 mRNA in K562 cells. The class given is cell-based. The following applies: 3 days, FIG. 3.
The subject of data set [5] is Human CD34+ bone marrow cells. Description: erythroid maturation in CS1 by CD71/GlyA flow cytometry. Conditions: 1 μM. Type of data set: cell-based. The text has this:
To investigate the effects of HDAC inhibition on later stages of erythroid maturation, differentiation in CS1 was followed by flow cytometry using fluorescent antibodies against the transferrin receptor (CD71) and glycophorin A (GlyA). […] The majority of vehicle control cells continued to differentiate, becoming CD71^posGlyA^pos by day 8. […] CD71^posGlyA^mid cells are equivalent to proerythroblasts (ProE), while CD71^posGlyA^pos cells include the more differentiated basophilic and polychromatic erythroblasts.
On the technique in general: Flow cytometry measures light scatter and fluorescence of single cells or particles in a stream.

Data set [6] concerns Gata2. Briefly: Gata2 shRNA knockdown with Compound 001 treatment. The class given is cell-based, human. The procedure:
In FIG. 13A-D, expanded hematopoietic progenitors were infected with lentivirus carrying short hairpin RNAs (shRNA) directed against the Gata2 gene (shG2-1, shG2-2) or a non-targeting control shRNA (shCtrl). Transduced cells were selected by puromycin treatment. […] RNA was isolated at the indicated time points and the level of Gata2 mRNA was determined by quantitative real time PCR (QRT-PCR). In FIG. 7A, K562 cells were infected with lentivirus as described above. […] RNA was isolated at indicated time point and the level of Gata2 mRNA was determined by quantitative real time PCR (QRT-PCR). In FIG. 7B, protein levels at Day 3 were determined by Western blot using antibodies against Gata2 and beta-actin as a loading control. […] Data was first normalized to beta-actin control and then expressed relative to vehicle treated cells.
Since Gata2 levels decline during erythroid differentiation (FIGS. 1B and 1C), knockdown experiments were performed entirely in CS1 expansion media, which supports hematopoietic progenitors, and maintained Gata2 mRNA at a constant level in shCtrl cells following infection (FIG. 13B). Gata2 mRNA was reduced by 85% or 50% in shG2-1 or shG2-2 cells, respectively, while Gata2 protein was reduced by 50% by each hairpin, relative to shCtrl cells (FIG. 13B and FIG. 13D).

The subject of data set [7] is Gata2 regulatory regions. Briefly: ChIP-QPCR of histone acetylation at Gata2 regulatory regions. The class given is cell-based. The source says:
In chromatin state maps these histone modifications, especially H3K9ac and H3K27ac, have been associated with active regulatory regions, such as enhancers and promoters of actively transcribed genes. The differentiation profile was unaffected by compound treatment and similar to that of cells used in experiments above (FIG. 23B).

Data set [8] in a line: pharmacokinetics of Compound 001 in rats. The following applies: rat, plasma, read-out: minimum drug exposure for the entire dosing period. Type of data set: in vivo. The protocol: I. A. Rats were dosed once daily by oral gavage for 6 consecutive days at 0 mg/kg, 10 mg/kg, or 30 mg/kg per dose (See FIG. 25A). Dosing days are indicated by a down arrow (FIG. 25A). Peripheral blood was drawn on the indicated days and analyzed for drug level in plasma (PK), complete blood counts (CBC), or isolation of total ribonucleic acid (RNA). C. […] Points are the average of replicate animals, error bars are the standard deviation of replicate animals (FIG. 25C).

The nature of data set [9]: blood cell counts in rats. Conditions: rat. Type of data set: in vivo. The procedure: I. A. Rats were dosed once daily by oral gavage for 6 consecutive days at 0 mg/kg, 10 mg/kg, or 30 mg/kg per dose (See FIG. 25A). Dosing days are indicated by a down arrow (FIG. 25A). Peripheral blood was drawn on the indicated days and analyzed for drug level in plasma (PK), complete blood counts (CBC), or isolation of total ribonucleic acid (RNA). […] For each individual rat, white blood cell counts were expressed relative to their predose level (time=day 0). Points are the average of n=4 animals with error bars showing the standard deviation.

Data set [10] concerns HbE mRNA. Description: HbE mRNA levels in peripheral blood of rats. The class given is in vivo. Conditions: rat, 10 and 30 mg/kg; FIG. 27A-B. The procedure:
I. A. Rats were dosed once daily by oral gavage for 6 consecutive days at 0 mg/kg, 10 mg/kg, or 30 mg/kg per dose (See FIG. 25A). Dosing days are indicated by a down arrow (FIG. 25A). Peripheral blood was drawn on the indicated days and analyzed for drug level in plasma (PK), complete blood counts (CBC), or isolation of total ribonucleic acid (RNA). […] For each individual rat, HbE mRNA was expressed relative to HbB mRNA and then normalized to their predose level (time=day 0). Points are the average of n=4 animals with error bars showing the standard deviation (FIG. 27A).

In data set [11] the test system is HbG mRNA. Description: HbG mRNA levels in peripheral blood of monkeys. Type of data set: in vivo, cynomolgus monkey. Conditions: monkey, 25 and 75 mg/kg; FIG. 27C-D. The protocol:
B. Cynomolgus monkey were dosed once daily by oral gavage for 5 consecutive days at 0 mg/kg, 25 mg/kg, or 75 mg/kg per dose (FIG. 25B). Sampling as described in ‘A’.
For each individual monkey, HbG mRNA was expressed relative to HbB mRNA and then normalized to their predose level (time=day 0). Points are the median of n=3 animals with error bars showing the range.

The subject of data set [12] is histone acetylation (H3K9/14ac, H3K56ac, H3K79ac, H2BK5ac). Description: histone acetylation levels by western blot. The following applies: 1 and 5 μM, FIG. 9B.

Chain of HDAC1 (Q13547 whole entry): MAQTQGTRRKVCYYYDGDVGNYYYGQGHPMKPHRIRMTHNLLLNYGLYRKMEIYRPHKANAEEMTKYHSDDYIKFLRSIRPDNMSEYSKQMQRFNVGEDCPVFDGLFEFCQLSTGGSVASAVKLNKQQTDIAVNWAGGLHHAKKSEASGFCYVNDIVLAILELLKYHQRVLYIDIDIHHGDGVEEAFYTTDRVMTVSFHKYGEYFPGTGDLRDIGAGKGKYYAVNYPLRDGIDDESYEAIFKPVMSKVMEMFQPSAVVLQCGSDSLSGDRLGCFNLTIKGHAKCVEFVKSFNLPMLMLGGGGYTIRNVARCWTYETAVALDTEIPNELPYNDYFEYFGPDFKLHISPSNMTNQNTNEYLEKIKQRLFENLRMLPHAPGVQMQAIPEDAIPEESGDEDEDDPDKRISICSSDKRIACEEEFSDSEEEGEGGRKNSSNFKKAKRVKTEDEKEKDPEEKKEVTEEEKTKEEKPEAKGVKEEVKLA

Consider `Nc1ccc(-c2cccs2)cc1NC(=O)c1ccc2nc(N3CCNCC3)ccc2c1` [Compound 001, N-(2-amino-5-(thiophen-2-yl)phenyl)-2-(piperazin-1-yl)quinoline-6-carboxamide], for which the half-maximal inhibitory concentration (IC50) in [1] (Table 2, read-out: IC50 HDAC1) was 4 nM; in [1] (pre-incubation time of 24 hours, FIG. 9A, 17B, read-out: IC50 against HDAC1), 7 nM. Further, the “inhibition of HDACs 4-9” value in data set [2] is “negligible inhibitory activity; also recorded: no inhibition”. In addition, the “Gata2 mRNA” value in [3] was “induction of Gata2 mRNA”; in [4] it was “dose dependent response”. The “erythroid differentiation (CD71/GlyA)” value in [5] (by day 8) is recorded as “block differentiation of proerythroblasts to basophilic erythroblasts”; in data set [5] (first 5 days), “differentiated normally”. The “Gata2 mRNA induction” value in data set [6] (1 uM, cells expressing shCtrl) was 1.4 fold. In addition, in [6] (1 uM, cells expressing shCtrl), the Gata2 protein induction is on record as 5 fold. Further, the “reduction of magnitude of HbG mRNA induction relative to shCtrl cells” value in data set [6] (shG2-1 and shG2-2 cells) was determined as 25%. In addition, the “increase in histone H3K9, H2BK5, and H3K27 acetylation” value in [7] (+9.5 kb and −3.9 kb regions) is listed as 3 fold; in data set [7] (−1.8 kb and −2.8 kb regulatory regions) it was 6 fold. For the same molecule, the concentration at 6 days is at least 5000 nM in [8] (high dose (30 mg/kg once daily oral gavage, 6 days)) and at least 1000 nM in data set [8] (low dose (10 mg/kg once daily oral gavage, 6 days)). Further, in data set [9], the RBC or platelets entry is given as “no detected affect”. Moreover, in data set [9], the “time of peak white blood cell suppression after the last dose” value worked out at 1 days. For the same molecule, in data set [9], the “time to recovery of white blood cell counts to baseline after the last dose” value turned out to be 5 days. In addition, the white blood cells entry in data set [9] (10 or 30 mg/kg for 6 days) is “reversible suppression”. Further, the “HbE mRNA relative to HbB mRNA, normalized to predose” value in data set [10] is “dose-dependent increase”. In addition, the “HbG mRNA relative to HbB mRNA, normalized to predose” value in data set [11] is “dose-dependent increase”. The “histone acetylation (H3K9/14ac, H3K56, H3K79ac, H2BK5ac)” value in data set [12] is recorded as “dose-dependent accumulation of acetylation”.

The IC50 is the point on the concentration scale where inhibition reaches its midpoint.
